In the assay the test system is loss of the righting reflex (RR) in mice. In words: Loss of the righting reflex assay in mice. The conditions noted are these: icv. Type of assay: in vivo, mouse. The method, then: All of the experimental procedures adopted in the in vivo studies comply with the European Directive 2010/63/EU on protecting animals used for scientific purposes and Italian Legislative Decree no. 26 of March 4, 2014. These experiments were approved by the Animal Welfare Body of the University of Ferrara and by the Ministry of Health (authorization number 677/2024-PR). In vivo studies have been reported following ARRIVE guidelines. All experiments were conducted with mice bred and housed in the University of Ferrara’s animal facility under specific pathogen-free conditions. All mice were housed in cages with individual ventilation, with a constant temperature of 21 °C, 60% humidity, and a 12 h light/dark cycle. Food and water were provided ad libitum. CD-1 male and female mice, aged 2 to 4 months, were used. Details about the generation of NOP(−/−) and NOP(+/+) mice have been published previously; , these mice have been backcrossed on CD-1 strain in our laboratories. NOP(+/+) and NOP(−/−) littermates were obtained by mating with NOP(±) mice. All mice were genotyped using the polymerase chain reaction previously described. All mice were used only once. The RR assay was performed as previously described. […] Diazepam 15 mg/kg was injected ip. When the animals lost RR, they were placed in a plastic cage, and the time was recorded by an expert observer, blind to drug treatments and/or genotype. Animals were judged to have regained the RR response when they could correct themselves three times within 30 s. Sleeping time is defined as the amount of time between the loss and regaining of the RR; it was rounded to the nearest minute.
Concentration-response curves to agonists were analyzed by a four-parameter logistic nonlinear regression model: Effect = baseline + (E max – baseline)/(1 + 10^((logEC50–log[ligand])slope)). […] Experimental data were expressed as mean ± sem of at least 5 experiments. Potency values were expressed as the mean and CL95%. In vitro E max values were analyzed by one-way ANOVA, while in vivo latency data were evaluated by one-way ANOVA followed by Dunnett’s post hoc test. The proportion of mice losing the righting reflex was compared by Fisher’s exact test performed on raw data. GraphPad Prism 10.0 software was used for all of the analyses. The terminology employed is consistent with the International Union of Basic and Clinical Pharmacology (IUPHAR) recommendations. ,

Bridge positions count the residues as written; N and C are the ends. Peptide text beside a SMILES is read from it. I, II: the chains in the order shown. Some results are limits rather than exact numbers.

On to `C[C@H](NC(=O)CNC(=O)[C@@H](NC(=O)[C@H](Cc1ccccc1)NC(=O)CNC(=O)CNC(=O)[C@@H](N)Cc1ccccc1)[C@@H](C)O)C(=O)N[C@@H](CCCNC(=N)N)C(=O)N[C@@H](CCCCN)C(=O)N[C@@H](CO)C(=O)N[C@@H](C)C(=O)N[C@@H](CCCNC(=N)N)C(=O)N[C@@H](CCCCN)C(=O)N[C@@H](CSSC[C@H](NC(=O)[C@H](CCCCN)NC(=O)[C@H](CCCNC(=N)N)NC(=O)[C@H](C)NC(=O)[C@H](CO)NC(=O)[C@H](CCCCN)NC(=O)[C@H](CCCNC(=N)N)NC(=O)[C@H](C)NC(=O)CNC(=O)[C@@H](NC(=O)[C@H](Cc1ccccc1)NC(=O)CNC(=O)CNC(=O)[C@@H](N)Cc1ccccc1)[C@@H](C)O)C(=O)N[C@@H](C)C(=O)N[C@@H](CC(N)=O)C(=O)N[C@@H](CCC(N)=O)C(N)=O)C(=O)N[C@@H](C)C(=O)N[C@@H](CC(N)=O)C(=O)N[C@@H](CCC(N)=O)C(N)=O` [1h, [[Cys^14]N/OFQ-NH2]2] (I: H-FGGFTGARKSARKCANQ-NH2 / II: H-FGGFTGARKSARKCANQ-NH2; disulfide I:14-II:14; N-terminus assumed), for which the “mice that lost the RR, 3 nmol” value (3 nmol, CD-1 mice, N = 8–10 per group) was 75%. For the same molecule, the “mice that lost the RR, 10 nmol” value (10 nmol, CD-1 mice, N = 8–10 per group) is “all mice”. Further, for the setting “3 and 10 nmol, only mice that lost the RR, experimental cutoff 420 min”, the “sleep duration (interval between loss and recovery of the RR)” value is ≥ 420 min. Also, under “mice, vs N/OFQ (and N/OFQ-NH2)”, the “potency in eliciting loss of the RR relative to N/OFQ” value amounted to 3 fold. Further, the “duration of the effect on RR” value (experimental cutoff 7 h) was ≥ 7 h.
